Test results published in PubChem BioAssay (NCI).
Where “and” joins values, the source holds several entries; their conditions need not be identical. Equal entries are not always repeated.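 Growth conditions: 96-well plates. Treatment: test compound, 48 hours, 5 concentrations. Analysis: linear interpolation between bracketing concentrations; unreached endpoints set to highest concentration. GI50 = concentration required for 50% inhibition of growth. The concentration for full growth arrest is given as TGI.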

What was measured:
Assay in all cases: NCI tumour cell line growth inhibition, 48 h
[1] = tested on: DU-145 prostate
[2] = tested on: MDA-MB-231 breast
[3] = tested on: NCI/ADR-RES ovarian
[4] = tested on: PC-3 prostate
[5] = tested on: T-47D breast
[6] = tested on: DLD-1 colon
[7] = tested on: DMS 273 small cell lung
[8] = tested on: LXFL 529 NSCLC
[9] = tested on: M19-MEL melanoma

Compound | GI50 [1] | TGI [1] | GI50 [2] | TGI [2] | GI50 [3] | TGI [3] | GI50 [4] | TGI [4] | GI50 [5] | TGI [5] | TGI [6] | TGI [7] | TGI [8] | TGI [9] | GI50 [6] | GI50 [8] | GI50 [9]
CC(C)COc1nc2c(c(=O)n(C)c(=O)n2C)n1C | > 100 µM | > 100 µM | > 100 µM | > 100 µM | > 100 µM | > 100 µM | > 100 µM | > 100 µM | > 100 µM | > 100 µM |  |  |  |  |  |  | 
Cc1cn(Cc2ccc(C34CC5CC(CC(C5)C3)C4)c(O)c2)c(=O)[nH]c1=O | 13.7 µM | 26.6 µM | 15.5 µM | 31 µM | 11.3 µM | 27.2 µM |  |  | 6.45 µM | 51.8 µM |  |  |  |  |  |  | 
CSc1nc2c(c(=O)n1C)CN(C1CCCCC1)C(=O)C(c1ccccc1)N2 (stereo unspecified) | 64.4 µM | > 100 µM | 27.4 µM | > 100 µM | 38.9 µM | > 100 µM | 21.7 µM | > 100 µM | 29.3 µM | > 100 µM |  |  |  |  |  |  | 
O=C1C=CC(=O)c2c(O)c3c(c(O)c21)C[C@H](O)[C@H](O)[C@@H]3O |  | 6.87 µM |  | 6.08 µM |  | 8.16 µM |  | 8.34 µM |  | 4 µM |  |  |  |  |  |  | 
CCOP(=O)(OCC)C(C(=O)OC)C(=O)C(=O)Nc1cccc(O)c1 (stereo unspecified) |  | > 100 µM |  | > 100 µM |  | > 100 µM |  | > 100 µM |  | > 100 µM |  |  |  |  |  |  | 
Cc1cc(C)c(-c2c(N)cc(Br)cc2Br)c(N)c1 | 4.33 µM | 16.4 µM | 4.85 µM | 19 µM | 2.98 µM | 9.11 µM | 6.42 µM | 26.5 µM | 5.71 µM | 19.3 µM |  |  |  |  |  |  | 
CO[C@H]1CC(O[C@@H]2/C(C)=C/C[C@@H]3C[C@@H](C[C@]4(CC[C@H](C)[C@@H](C5CCCCC5)O4)O3)OC(=O)[C@@H]3C=C(C)/C(=N/O)[C@H]4OC/C(=C\C=C\[C@@H]2C)[C@]43O)O[C@@H](C)C1O (stereo partly specified) | 0.833 µM | 1.62 µM | 0.768 µM | 1.59 µM | 1.07 µM | 2.9 µM | 0.704 µM | 1.84 µM | 1.1 µM | 3.09 µM |  |  |  |  |  |  | 
O=C(O)C1[O][Sb][O]C(C(=O)O)C1O (stereo unspecified) | > 100 µM | > 100 µM | > 100 µM | > 100 µM | > 100 µM | > 100 µM | > 100 µM | > 100 µM | > 100 µM | > 100 µM |  |  |  |  |  |  | 
CN1CCN(Cc2ccc(NC(=O)c3cncc(C#Cc4cnc(N)c5cccnc45)c3)cc2C(F)(F)F)CC1 | 0.309 µM | > 50 µM | 0.137 µM | 0.975 µM | > 50 µM | > 50 µM | 0.665 µM | > 50 µM | 0.36 µM | > 50 µM |  |  |  |  |  |  | 
NS(=O)(=O)c1cc(C(=O)O)c(O)c2ccccc12 |  | > 100 µM |  | > 100 µM |  | > 100 µM |  | > 100 µM |  | > 100 µM |  |  |  |  |  |  | 
COC(=O)[C@@H]1Cc2c([nH]c3ccccc23)[C@H](c2ccccc2)N1 |  |  |  |  |  |  |  |  |  |  | > 100 µM | 57.8 µM | > 100 µM | > 100 µM |  |  | 
Cn1cc(-c2cnn3c(N)c(Br)c(C4CCCNC4)nc23)cn1 (stereo unspecified) | 3.2 µM | 65 µM | 5.53 µM | 40 µM | 8.36 µM | > 100 µM | 5.26 µM | > 86.2 µM | 19.6 µM | > 100 µM |  |  |  |  |  |  | 
COC(=O)c1cc2c3ccccc3n3c2c(n1)-c1[nH]c2ccccc2c(=O)c1C3 | > 100 µM | > 100 µM | 33.7 µM | > 100 µM | > 100 µM | > 100 µM | > 100 µM | > 100 µM | 58.4 µM | > 100 µM |  |  |  |  |  |  | 
COc1ccc([C@@]23Oc4cc(OC)cc(OC)c4[C@]2(O)[C@H](O)[C@H](C(N)=O)[C@H]3c2ccccc2)cc1 |  | 0.105 µM and < 0.0219 µM | 0.0175 µM | 0.126 µM and 0.0685 µM | 0.0504 µM | 0.687 µM and 0.867 µM |  |  |  | 0.21 µM and 0.0483 µM |  |  |  |  |  |  | 
CC[C@@H](C)/C=C(C)/C=C/C(=O)c1c(O)c(-c2ccc(O)cc2)cn(O)c1=O | 0.496 µM | 13.8 µM | 0.733 µM | 23 µM | 0.327 µM | 10.7 µM | 3.2 µM | 18.8 µM | 0.609 µM | 28.5 µM |  |  |  |  |  |  | 
CCCCCC/C=C\CCCCCCCCCC1=C(CN2CCN(C)CC2)C(=O)C=C(OC)C1=O |  | 26.2 µM |  | 25.9 µM |  | 11.5 µM |  | 10.5 µM |  | 4.81 µM |  |  |  |  |  |  | 
COc1ccc(S(=O)(=O)N(CC(=O)O)c2ccccc2)cc1 |  |  |  |  |  |  |  |  |  |  | > 100 µM | > 100 µM | > 100 µM | > 100 µM |  |  | 
CCCCCCCCCC[C@H](O)[C@H](O)CC[C@@H](O)[C@H]1CC[C@@H]([C@H]2CC[C@H](CCCCCCC[C@@H](O)CC3=C[C@H](C)OC3=O)O2)O1 |  |  | 19.4 µM | 7.79 µM and 69.2 µM | 18.2 µM | > 100 µM | 11.7 µM | 40.7 µM | 4.22 µM | 42.8 µM |  |  |  |  |  |  | 
CC(=O)[CH-]C(=O)c1ccccc1.CC(=O)[CH-]C(=O)c1ccccc1.CC(=O)[CH-]C(=O)c1ccccc1.[Nd+3].[OH3+] |  |  |  |  |  |  |  |  |  |  | > 100 µM |  | > 100 µM | > 100 µM | 25 µM | 71.1 µM | 31.4 µM
CCCCCCCC/C=C/CCCCCCCC1=NC(C)(C)CN1CCO | 1.72 µM | 3.09 µM | 1.72 µM | 3.69 µM | 3.87 µM | 13.9 µM | 2.19 µM | 9.38 µM | 1.94 µM | 4.34 µM |  |  |  |  |  |  | 
C#CCN(c1ccc(C(=O)N[C@@H](CCC(=O)N[C@H](CCC(=O)O)C(=O)O)C(=O)O)cc1)C1CCc2cc3nc(CO)[nH]c(=O)c3cc21 (stereo partly specified) | 16.5 µM | > 100 µM | > 100 µM | > 100 µM | 8.58 µM | > 100 µM | > 100 µM | > 100 µM | > 67 µM | > 100 µM |  |  |  |  |  |  | 
Cc1cc(Nc2nc(N[C@@H](C)c3ncc(F)cn3)ncc2Cl)n[nH]1 | 40.8 µM | > 100 µM | 30.6 µM | > 100 µM | 32 µM | > 100 µM | 43.7 µM | > 100 µM | 22.8 µM | > 100 µM |  |  |  |  |  |  | 
C=CCC(N[C@@H](CO)c1ccccc1)c1cn(C(=O)OCC)c2ccccc12 (stereo partly specified) | 27.6 µM | 86 µM | 20.6 µM | 43.5 µM | 18.9 µM | 55.5 µM | 22.3 µM | > 100 µM | 25.8 µM | > 100 µM |  |  |  |  |  |  | 
O=C1O/C(=C/c2ccccc2)C(c2ccccc2)=C1O |  | 97 µM |  | > 100 µM |  | > 100 µM |  | > 100 µM |  | 74.2 µM |  |  |  |  |  |  | 
